Laboratory results published in patent publication US20120309739A1, “AKT / PKB INHIBITORS” (ALMAC DISCOVERY LIMITED, priority 2009, published 2012).

How the values were obtained:
AKT phosphorylation = assay: Phosphorylation status of AKT/PI3K pathway via western blotting; assay type: cell-based; conditions: for 48 h at 10 μM
Source text: Analysis of Compound Effects on AKT Signalling Pathways
Phosphorylation status of various members of the AKT/PI3K pathway were investigated via western blotting.
Materials Required for this Assay
20× Running buffer (Invitrogen); Rainbow marker ladder (GE Healthcare); Reducing buffer (Invitrogen); 20× Transfer buffer (Invitrogen); 4-12% Bis-Tris Gels (Invitrogen); Filter paper (Whatman); Nitrocellulose (Amersham); ECL plus detection reagents (GE Healthcare); Radiographic film (Kodak); Biorad Protein determination reagent (Biorad); AKT pathway signalling antibodies (Cell Signalling)
LnCaP and PC3 cell lines were washed, detached and re-suspended in fresh medium. They were seeded in 90 mm^2 dishes and incubated overnight ([…]/5% CO2) to allow adherence. […]
The medium was removed and the cells placed on ice and washed in PBS. […] The resultant supernatant was assayed for protein content using the Bradford method (Biorad) and equal quantities of protein calculated and heated in sample reducing buffer to 95° C. for ten minutes. […]
The membranes were used to determine difference in total AKT, pSer473 AKT, pGSK3β and total GSK3β (all sourced from Cell Signalling). […] The membranes were washed three times in PBS and incubated with the respective secondary antibodies (Sigma Aldrich) for two hours and the proteins were detected using ECL plus detection reagents (GE Healthcare).

AKT3 = biological target: T1, AKT3 (Homo sapiens, UniProt Q9Y243); assay: AKT Kinase Assay (IMAP fluorescent polarisation) vs AKT3; assay type: biochemical; conditions: activated AKT3, FAM Crosstide substrate
T1 construct: purchased SignalChem
T1 sequence (Q9Y243 whole entry): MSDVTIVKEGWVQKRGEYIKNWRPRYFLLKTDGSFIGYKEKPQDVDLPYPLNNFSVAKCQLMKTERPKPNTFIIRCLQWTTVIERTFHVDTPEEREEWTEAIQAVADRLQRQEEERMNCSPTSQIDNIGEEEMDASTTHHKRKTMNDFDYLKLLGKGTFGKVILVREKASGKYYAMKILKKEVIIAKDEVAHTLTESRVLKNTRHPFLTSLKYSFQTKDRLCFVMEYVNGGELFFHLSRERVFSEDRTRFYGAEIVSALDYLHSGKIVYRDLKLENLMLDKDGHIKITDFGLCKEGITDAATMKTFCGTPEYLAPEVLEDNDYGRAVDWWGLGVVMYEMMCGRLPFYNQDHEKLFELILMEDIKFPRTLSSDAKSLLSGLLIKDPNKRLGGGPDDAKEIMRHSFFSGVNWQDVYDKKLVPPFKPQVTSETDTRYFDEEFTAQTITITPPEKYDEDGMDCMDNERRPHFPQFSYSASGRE
In short: (§1)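 Each activated AKT isoform, at a pre-determined linear-range concentration, was pre-incubated 45 min at room temperature with compound in a fourteen-point half-log series. ATP plus 5′FAM-Crosstide then reacted 1 h; IMAP binding reagent stopped it (1 h). Fluorescence polarisation (ex 485/em 528 nm) versus vehicle gave IC50 by non-linear regression.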

AKT2 = biological target: T2, AKT2 (Homo sapiens, UniProt P31751); assay: AKT Kinase Assay (IMAP fluorescent polarisation) vs AKT2; assay type: biochemical; conditions: activated AKT2, FAM Crosstide substrate
T2 construct: purchased SignalChem
T2 sequence (P31751 whole entry): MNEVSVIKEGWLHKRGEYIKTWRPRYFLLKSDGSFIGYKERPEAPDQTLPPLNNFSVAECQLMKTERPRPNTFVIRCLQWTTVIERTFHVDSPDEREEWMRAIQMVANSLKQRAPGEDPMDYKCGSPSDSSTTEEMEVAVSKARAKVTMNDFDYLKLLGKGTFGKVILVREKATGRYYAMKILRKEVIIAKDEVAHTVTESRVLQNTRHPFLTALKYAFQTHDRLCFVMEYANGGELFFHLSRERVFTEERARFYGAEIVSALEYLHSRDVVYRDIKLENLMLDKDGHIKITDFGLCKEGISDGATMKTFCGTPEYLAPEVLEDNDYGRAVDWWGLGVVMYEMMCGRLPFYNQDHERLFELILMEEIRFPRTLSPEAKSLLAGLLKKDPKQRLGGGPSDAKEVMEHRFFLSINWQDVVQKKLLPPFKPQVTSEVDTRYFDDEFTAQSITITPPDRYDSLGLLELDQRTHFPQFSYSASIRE
In short: as §1

AKT1 = biological target: T3, AKT1 (Homo sapiens, UniProt P31749); assay: AKT Kinase Assay (IMAP fluorescent polarisation) vs AKT1; assay type: biochemical; conditions: activated AKT1, FAM Crosstide substrate
T3 construct: purchased SignalChem
T3 sequence (P31749 whole entry): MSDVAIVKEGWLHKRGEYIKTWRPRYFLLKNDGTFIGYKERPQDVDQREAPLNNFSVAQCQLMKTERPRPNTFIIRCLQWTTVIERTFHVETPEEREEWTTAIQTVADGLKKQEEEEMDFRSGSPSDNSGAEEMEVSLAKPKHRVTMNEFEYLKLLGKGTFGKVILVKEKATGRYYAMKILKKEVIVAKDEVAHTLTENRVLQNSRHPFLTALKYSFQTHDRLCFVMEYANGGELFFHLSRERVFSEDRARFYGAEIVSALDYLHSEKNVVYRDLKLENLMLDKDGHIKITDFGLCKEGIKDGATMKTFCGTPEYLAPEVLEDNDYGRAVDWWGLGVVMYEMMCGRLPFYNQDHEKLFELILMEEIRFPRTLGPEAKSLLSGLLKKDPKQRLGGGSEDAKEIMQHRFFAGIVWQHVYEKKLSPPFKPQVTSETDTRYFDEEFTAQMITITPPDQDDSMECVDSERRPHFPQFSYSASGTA
In short: as §1

IC50 (AKT3): 1000 to 10000 nM | IC50 (AKT2): 100 to 1000 nM | IC50 (AKT1): 100 to 1000 nM
SMILES: CSc1nc2oc(-c3ccc(C4(N)CCC4)cc3)c(-c3ccccc3)c2c(=O)[nH]1 [Example 15, 6-(4-(1-Aminocyclobutyl)phenyl)-2-(methylthio)-5-phenylfuro[2,3-d]pyrimidin-4(3H)-one]
inhibition of AKT phosphorylation (AKT phosphorylation): inhibition of AKT phosphorylation
